Measured values as given in patent publication US20210308120A1, “Use of Amitriptyline for Blocking Brain Hemichannels and Method for Potentiating its Effect in Vivo” (THERANEXUS, priority 2015, published 2021).

Tests used:
[1] = test system: SN-CCI rats (neuropathic pain, hyperalgesia); assay: Randall & Selitto test in SN-CCI rats, chronic 14-day administration; type: in vivo, rat; details: amitriptyline 12 mg/kg s.c. osmotic pump; mefloquine 0.5 mg/kg i.p. twice a day; 14 days; vs saline
Description: Data are the means±S.E.M. of n=8-14 rats.
Data are the means±S.E.M. of n=8-14 rats. *p<0.05, **p<0.01, ***p<0.001 as compared with “saline+saline” group at the same time, ≠p<0.05 as compared between amitriptyline groups, two-way ANOVA, Bonferroni test.
(§1) One week after their arrival, rats were anesthetized with sodium pentobarbital before exposing the common sciatic nerve. As described in Bennett's article, four chromic catgut (5-0) ligations were tied loosely proximally to the sciatic trifurcation (Bennett and Xie, 1988).
(§2) All behavioral assessments were conducted between 9 a.m. and 5 p.m. in a quiet room. An increasing pressure was applied to the right hind paw of SN-CCI (Sciatic Nerve-Chronic Constriction Injury) rat to evaluate hyperalgesia-like behavior (Viguier and al, 2013). Values correspond to the pressure threshold producing the paw withdrawal and then the vocalization of the rat.
(§3) Osmotic mini-pumps (Alzet, model 2ML2), delivering for the following 14 days amitriptyline or vehicle were subcutaneously implanted.
a) Rats were ligated on sciatic nerve and then tested with the Randall & Selitto test 14 days after surgery, to evaluate hyperalgesia quantified as pressure threshold. Neuropathic rats, characterized by a decrease of pressure threshold after surgery, were then treated during 14 days and tested by the Randall & Selitto test during this period.

[2] = test system: SN-CCI rats (neuropathic pain, hyperalgesia); assay: Randall & Selitto test in SN-CCI rats, repeated administration every 150 minutes; type: in vivo, rat; details: amitriptyline alone i.p. every 150 min; at 90 and 240 min
Protocol: as §1, §2

mice subjected to FST = assay: Forced Swim Test (FST); type: in vivo, mouse; details: 2nd 3-min period
Protocol: The FST is the most used rodent model for screening antidepressants (Porsolt et al, 1977). Mice were dropped individually in a glass cylinder (25 cm high, 9 cm diameter) filled with 10 cm 25° C. water. The experiment was recorded with a camcorder, placed in front of the glass cylinders. Video were scored at a later time by an experimenter blind to the treatments. The indices of depression-related behavior are the immobility time, the swimming time and the climbing time.
FST test evaluates the despair behavior which is commonly reversed by antidepressants. During FST, the swimming time of each mouse was measured on each 1-min period, on 1st and 2nd 3-min periods.

REM sleep in mice = assay: Quantification of sleep-wake episodes (REM sleep), EEG/EMG; type: in vivo, mouse; details: amitriptyline 1 mg/kg i.p., combined or not with mefloquine 1 mg/kg i.p.; vs control
Description: Mice were implanted with cortical and muscle electrodes to record the electroencephalogram (EEG) and electromyogram (EMG) and to monitor the sleep-wake cycle. This implantation allows stable and long-lasting polysomnographic recordings (Parmentier et al, 2002).
Polysomnographic records were visually scored by 10-s epochs for wakefulness (W), slow wave sleep (SWS), and paradoxical or rapid eye movement (REM) sleep.
Mice were registered by electroencephalogram to quantify sleep-wake episodes.

[3] = Pharmacokinetic of amitriptyline in brain and serum of SN-CCI rats; type: in vivo, rat; details: amitriptyline 12 mg/kg osmotic pump ± mefloquine 0.5 mg/kg i.p. bidaily, 14 days
Protocol: Blood was collected and kept 1 hour at 4° C. Then serum and brain were collected. Amitriptyline was quantified by HPLC and mass spectrometry (Crepta laboratory).
as §3
After 14-day treatment, so 28 days after surgery, rats were sacrificed and brain as well as serum samples were collected to quantify amitriptyline.

[4] = test system: LPS-injected mice (neuro-inflammation); assay: LPS-induced model of neuro-inflammation (coat state score, weight loss); type: in vivo, mouse; details: amitriptyline 1 mg/kg ± mefloquine 1 mg/kg
Description: FIG. 13 represents the coat state scores evaluated three hours after treatment in a LPS-induced model of neuro-inflammation (left graph). The right graph represents the amount of weight loss between three hours of treatment and just before treatment in a LPS-induced model of neuro-inflammation (right graph). Control mice were ip injected with saline solution. […] In both graphs: n=4-6 mice per group, data are presented as means±SEM and compared with a One-way ANOVA followed by Tukey's post-hoc test, *p<0.05, […] versus CONTROL-treated mice.
Adult Swiss male mice were used in the LPS model. Mice were kept in collective cages for habituation to the facility for one week before experimental testing. Afterwards, they were housed in individual cages two days before the experiment started with food and water ad libitum. Mice were maintained on a light/dark cycle of 12 hours with light onset at 8h00 and with a controlled temperature of 21° C.±1° C. […]
Coat state score was evaluated three hours after treatment. […] The cleanness fur state was evaluated for each of these five body parts. […]
General physiological state of the animals was assessed by the normalised weight loss; defined as the difference between weight measures three hours after treatment (T0+24 h) and just before treatment (T0+21 h).

[5] = rats; cited from earlier work

CN(C)CCC=C1c2ccccc2CCc2ccccc21 [amitriptyline, 3-(5,6-dihydrodibenzo[2,1-b:2′,1′-f][7]annulen-11-ylidene)-N,N-dimethylpropan-1-amine]
Paw withdrawal threshold (pressure) [1]: significant increase of the paw withdrawal threshold at day 14 | Vocalization threshold (pressure) [1]: increase of the vocalization threshold | Paw withdrawal threshold [2]: did not induce significant effect on its own | Swimming time (mice subjected to FST; amitriptyline 12 mg/kg per os alone): not significant | Swimming time (mice subjected to FST; amitriptyline 24 mg/kg per os, single): significant increase of the swimming time | REM sleep duration (REM sleep in mice): did not induce significant reduction on its own | Amitriptyline concentration in brain, with vs without mefloquine [3]: No changes | Amitriptyline concentration in serum, with vs without mefloquine [3]: No changes | Amitriptyline ratio brain/plasma, with vs without mefloquine [3]: no significant difference | Weight loss ([4]; between just before and three hours after oral treatment): induces a decrease in weight loss | Coat state score (grooming activity) ([4]; three hours after oral treatment, LPS 0.33 mg/kg i.p.): tendency to reduce the deterioration of coat state | Half-life [5]: 2.5 h
